According to ChEMBL document CHEMBL1201862, “PubChem BioAssay data set” (2004):
Counter-ions that a name gives are not always drawn.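 Five compound concentrations were applied to cells in 96-well plates for 48 hours; endpoints were derived by simple linear interpolation of the resulting dose-response curve. Abbreviation: GI50, concentration required for 50% inhibition of growth.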 The source made the active and inactive calls. Cut-off read from the data, not from the text of the source: active = GI50 up to about 1.1 µM and inactive = higher.

Tests used:
Test in all cases: NCI tumour cell line growth inhibition, 48 h
[1] = test system: MDA-N
[2] = test system: NCI-H23
[3] = test system: MOLT-4
[4] = test system: UACC-257
[5] = test system: KM12
[6] = test system: Malme-3M
[7] = test system: OVCAR-4
[8] = test system: K562
[9] = test system: OVCAR-5
[10] = test system: SK-MEL-28
[11] = test system: SN12C
[12] = test system: MDA-MB-435
[13] = test system: SF-295
[14] = test system: HT-29
[15] = test system: Hs-578T
[16] = test system: OVCAR-8
[17] = test system: SW-620
[18] = test system: IGROV-1
[19] = test system: SR
[20] = test system: SF-539

SMILES | GI50 [1] | GI50 [2] | GI50 [3] | GI50 [4] | GI50 [5] | GI50 [6] | GI50 [7] | GI50 [8] | GI50 [9] | GI50 [10] | GI50 [11] | GI50 [12] | GI50 [13] | GI50 [14] | GI50 [15] | GI50 [16] | GI50 [17] | GI50 [18] | GI50 [19] | GI50 [20]
CCOc1ccc(N/C(=C(/C(Cl)=C(/Cl)Nc2ccccc2)[N+](=O)[O-])n2nnc3ccccc32)cc1 | 19.8 µM (inactive) | 13.7 µM (inactive) | 14.8 µM (inactive) | 34.6 µM (inactive) | 32.7 µM (inactive) | 21.9 µM (inactive) | 42.5 µM (inactive) | 28.8 µM (inactive) | 35.5 µM (inactive) | 22.8 µM (inactive) | 20.8 µM (inactive) | 29.4 µM (inactive) | 51.3 µM (inactive) |  |  |  |  |  |  | 
N=C(N)N/N=C\c1c(-c2cccc([N+](=O)[O-])c2)nc2sc(Cl)cn12 |  | 2.75 µM (inactive) | 2 µM (inactive) | 2.29 µM (inactive) | 2.32 µM (inactive) | 2.42 µM (inactive) | 1.54 µM (inactive) | 0.575 µM (active) | 3.91 µM (inactive) | 2.21 µM (inactive) | 2.6 µM (inactive) | 2.07 µM (inactive) | 2.31 µM (inactive) | 1.73 µM (inactive) | 43.4 µM (inactive) | 2.75 µM (inactive) | 3.18 µM (inactive) | 1.8 µM (inactive) | 0.61 µM (active) | 2.6 µM (inactive)
C/C(=N\Nc1nc2ccccc2s1)c1cc2ccccc2cn1 | 8.69 µM (inactive) | 3.21 µM (inactive) | 0.41 µM (active) | 3.55 µM (inactive) | 4.89 µM (inactive) | 4.61 µM (inactive) | 1.75 µM (inactive) |  | 4.38 µM (inactive) | 6.3 µM (inactive) | 4.29 µM (inactive) | 5.24 µM (inactive) | 3.7 µM (inactive) | 3.31 µM (inactive) |  | 2.84 µM (inactive) | 3.95 µM (inactive) | 1.61 µM (inactive) | 2.41 µM (inactive) | 3.83 µM (inactive)
OC1(c2ccccc2)CCCCCCCCC(O)(c2ccccc2)CCCCCCCC1 (stereo not given) | > 100 µM (inactive) | > 100 µM (inactive) |  | > 100 µM (inactive) | > 100 µM (inactive) | > 100 µM (inactive) | > 100 µM (inactive) | > 100 µM (inactive) | > 100 µM (inactive) | > 100 µM (inactive) | > 100 µM (inactive) | > 100 µM (inactive) | > 100 µM (inactive) | > 100 µM (inactive) |  | > 100 µM (inactive) | > 100 µM (inactive) | > 100 µM (inactive) | > 100 µM (inactive) | > 100 µM (inactive)
C/C(=N\Nc1ccccc1Br)c1cccc(/C(C)=N/Nc2ccccc2Br)n1 | 31.7 µM (inactive) | > 100 µM (inactive) | > 100 µM (inactive) | > 100 µM (inactive) | 52.6 µM (inactive) | 66.8 µM (inactive) | > 100 µM (inactive) | 39.7 µM (inactive) | > 100 µM (inactive) | > 100 µM (inactive) | > 100 µM (inactive) | 30 µM (inactive) | 34.4 µM (inactive) | > 100 µM (inactive) |  | > 100 µM (inactive) | > 100 µM (inactive) | 80.7 µM (inactive) | > 100 µM (inactive) | 88.5 µM (inactive)
CC(CN1c2ccccc2Sc2ccccc21)N(C)C (stereo not given) [PROMETHAZINE HYDROCHLORIDE] |  | 21.8 µM (inactive) | 19.8 µM (inactive) | 23.9 µM (inactive) | 20.8 µM (inactive) | 18.9 µM (inactive) | 16.4 µM (inactive) | 17.3 µM (inactive) | 18.2 µM (inactive) | 17.8 µM (inactive) | 15.3 µM (inactive) | 16.9 µM (inactive) | 15.4 µM (inactive) | 16.4 µM (inactive) |  | 16.2 µM (inactive) | 23.6 µM (inactive) | 20.1 µM (inactive) | 21.8 µM (inactive) | 19.1 µM (inactive)
C/C(=C\CO)CC/C=C(\C)CNc1ccc([N+](=O)[O-])cc1 |  | 2.57 µM (inactive) | 1.93 µM (inactive) | 21.6 µM (inactive) | 16.1 µM (inactive) | 8.2 µM (inactive) | 2.98 µM (inactive) | 15 µM (inactive) | 41.7 µM (inactive) | 28.4 µM (inactive) | 60.8 µM (inactive) | 28.6 µM (inactive) | 32.5 µM (inactive) | 27.4 µM (inactive) | 16.6 µM (inactive) | 30.8 µM (inactive) | 56.1 µM (inactive) | 28.8 µM (inactive) | 4.54 µM (inactive) | 28.6 µM (inactive)
CCCCCCc1cc2cc(-c3csc(-c4ccc(OC)cc4)n3)c(=O)oc2cc1O |  |  | 24.3 µM (inactive) | 8.51 µM (inactive) | 24.8 µM (inactive) |  | 2.48 µM (inactive) | 19.3 µM (inactive) | 26.7 µM (inactive) | 10.2 µM (inactive) | 10.4 µM (inactive) | 4.9 µM (inactive) | 13.9 µM (inactive) | 96.2 µM (inactive) | 15.8 µM (inactive) |  | 6.61 µM (inactive) | 5.45 µM (inactive) | 19.6 µM (inactive) | 12.8 µM (inactive)
C=C1c2nc3ccccc3n2C=C(c2ccccc2)N1c1ccccc1 | 39.8 µM (inactive) | 33.7 µM (inactive) | 21.4 µM (inactive) | 74.1 µM (inactive) | 24.8 µM (inactive) | > 100 µM (inactive) | 16.4 µM (inactive) | 34.5 µM (inactive) | > 100 µM (inactive) |  | 92.5 µM (inactive) | 40.5 µM (inactive) | 32.1 µM (inactive) |  |  | 37.8 µM (inactive) | 40.3 µM (inactive) | > 100 µM (inactive) | 21.7 µM (inactive) | 43.6 µM (inactive)
O=C(CCCN1CCC(O)(c2ccc(Cl)cc2)CC1)c1ccc(F)cc1 [HALOPERIDOL] |  | 31 µM (inactive) | 89.7 µM (inactive) | 20.9 µM (inactive) | 18.6 µM (inactive) | 19.6 µM (inactive) | 85.7 µM (inactive) | > 100 µM (inactive) | 28.8 µM (inactive) | 18 µM (inactive) | 37.7 µM (inactive) | 17.5 µM (inactive) | 15.6 µM (inactive) | 18.8 µM (inactive) | 25.4 µM (inactive) | 32.7 µM (inactive) | 18.2 µM (inactive) | 57.3 µM (inactive) | 48.1 µM (inactive) | 26.1 µM (inactive)
O=S(=O)(Oc1ccc2ccccc2c1-c1c(OS(=O)(=O)C(F)(F)F)ccc2ccccc12)C(F)(F)F |  | 75.2 µM (inactive) | 12.8 µM (inactive) | 1.32 µM (inactive) | > 100 µM (inactive) | > 100 µM (inactive) | 4.2 µM (inactive) | 16.9 µM (inactive) | > 100 µM (inactive) | > 100 µM (inactive) |  | 45.5 µM (inactive) | > 100 µM (inactive) | 41.9 µM (inactive) | > 100 µM (inactive) | > 100 µM (inactive) | > 100 µM (inactive) | > 100 µM (inactive) | 7.67 µM (inactive) | > 100 µM (inactive)
CC1=C(C(=O)CC(=O)C(=O)Nc2cccc(Cl)c2C)Sc2ccccc2N1 |  | > 100 µM (inactive) | > 100 µM (inactive) | > 100 µM (inactive) | > 100 µM (inactive) | > 100 µM (inactive) | > 100 µM (inactive) | > 100 µM (inactive) | > 100 µM (inactive) | > 100 µM (inactive) | > 100 µM (inactive) |  | > 100 µM (inactive) | > 100 µM (inactive) |  | > 100 µM (inactive) | > 100 µM (inactive) | > 100 µM (inactive) | > 100 µM (inactive) | > 100 µM (inactive)
C[C@]12CCC3c4ccc(O)cc4CC[C@H]3C1CC(=O)NC2=O (stereo not given in full) | > 10 µM (inactive) | > 10 µM (inactive) | > 10 µM (inactive) | > 10 µM (inactive) | > 10 µM (inactive) | > 10 µM (inactive) | > 10 µM (inactive) | > 10 µM (inactive) | > 10 µM (inactive) | > 10 µM (inactive) | > 10 µM (inactive) | > 10 µM (inactive) | > 10 µM (inactive) | > 10 µM (inactive) |  | > 10 µM (inactive) | > 10 µM (inactive) | > 10 µM (inactive) | > 10 µM (inactive) | > 10 µM (inactive)
COCCOCN(C(=O)C1=CCC2(CC1)OCCO2)c1ccccc1I | > 50 µM (inactive) | > 50 µM (inactive) | > 50 µM (inactive) | > 50 µM (inactive) | > 50 µM (inactive) |  | > 50 µM (inactive) |  | > 50 µM (inactive) | > 50 µM (inactive) | > 50 µM (inactive) | > 50 µM (inactive) | > 50 µM (inactive) | > 50 µM (inactive) |  | > 50 µM (inactive) | > 50 µM (inactive) |  | > 50 µM (inactive) | 
CCOC(=O)C(C/C=C/CO)N(C)C(=O)OC(C)(C)C (stereo not given) | > 100 µM (inactive) | > 100 µM (inactive) | > 100 µM (inactive) | > 100 µM (inactive) | > 100 µM (inactive) |  | > 100 µM (inactive) | 83.9 µM (inactive) | > 100 µM (inactive) | > 100 µM (inactive) | > 100 µM (inactive) |  | > 100 µM (inactive) | > 100 µM (inactive) | 53.5 µM (inactive) | > 100 µM (inactive) | > 100 µM (inactive) | > 100 µM (inactive) | 94.8 µM (inactive) | > 100 µM (inactive)
Cc1c2cc[n+](C)cc2c(C)c2c1[nH]c1ccc(OC(C)(C)C)cc12 |  | > 100 µM (inactive) | > 100 µM (inactive) | > 100 µM (inactive) | > 100 µM (inactive) | > 100 µM (inactive) | > 100 µM (inactive) | > 100 µM (inactive) | > 100 µM (inactive) | > 100 µM (inactive) | > 100 µM (inactive) |  | > 100 µM (inactive) | > 100 µM (inactive) |  | > 100 µM (inactive) | > 100 µM (inactive) | > 100 µM (inactive) | > 100 µM (inactive) | > 100 µM (inactive)
